Experiments:
[1] = system: T1, wild-type (GRR) human STING cGAMP binding domain (residues 155-341); assay: Differential Scanning Fluorimetry (DSF), stability of STING protein against thermal denaturation; conditions: 100 uM compound, 3 uM target protein
T1 construct: His-TEV-hSTING (WT); TEV protease cleavage site (N); made in house; host or cells: E. coli BL21 DE3
Procedure: Dye fluorescence is quenched in aqueous environment and increases upon association of the dye with the hydrophobic parts of the unfolding protein. […] The inflection point of the curve represents the “melting” temperature of the protein (Tm) which is calculated numerically using the Boltzmann equation.
Method: The thermal stability of the STING protein was measured using a specific expression construct of the cGAMP binding domain of wild-type (GRR) human STING comprising residues 155-341 and a N-terminal 8x His-tag in assay buffer containing 20 mM Tris, 150 mM NaCl at pH7.5.
The assay uses Hard-Shell®PCR Plates 384-Well CLR/WHT (Catalog #HSP3805, BIO-RAD), Microseal®‘B’ Adhesive Seals for PCR Plates (Catalog #MSB-1001, BIO-RAD) and was run on a CFX384 Real-Time System (Bio-Rad).
A DMSO stock solution of SYPRO orange (SIGMA S5692-500UL) was prepared.
Compound stock solutions (10 mM in DMSO) were diluted 1:2 in DMSO to an intermediate compound concentration of 5 mM and then further diluted 1:40 in assay buffer resulting in a compound concentration of 125 μM and 2.5% DMSO.
Fluorescent dye stock solution (5000×SYPRO Orange) was then mixed with target protein and buffer to a concentration of 15 uM Protein and 25×SYPRO Orange. 2 ul of this protein-dye-mixture was added to 8 ul compound solution. Final volume was 10 uL. 3-6 well positions were used as negative control (protein with 2% DMSO). The plates were prepared for duplicate measurement and centrifuged for 2 min at 1000 g. In the measurement, 160 cycles of 0.5° C. were used (temperature ramp 15 s/cycle, 15° C. to 95° C.).
Final Assay concentrations for compound characterization were as follows:
100 uM compound, 3 uM target protein, 5×SYPRO Orange, 2% DMSO in 10 ul. All dispensing steps were performed using a HamiltonStar pipetting robot (Hamilton).
Dissociation curves were processed in Bio-Rad CFX Manager. Peak type was set to “negative”.
Compound codes for screen were assigned in the plate layout.
Two replicates of TM measurements were averaged, and the standard deviation was calculated. In cases of SD>1.5° C. the measurement was repeated.
The melting point (Tm) obtained for STING protein alone was subtracted from T obtained for protein incubated with ligand to generate ΔTm values.
Protein production and purification: The protein used for the biophysical experiments was a recombinant human STING protein comprising its cytosolic ectodomain. A codon optimized DNA sequence (for expression in Escherichia coli) encoding amino acid residues 155 to 341 (Swiss Prot Q86WV6) of human STING (WT) was synthesized by GeneArt (Regensburg, Germany) and inserted into a pET17b E. coli expression vector. The protein construct encodes an N-terminal 8× His-tag followed by tobacco etch virus protease (TEV) cleavage site and the above STING gene sequence. The resulting protein sequence for the used STING variant is listed below:
For expression of recombinant human STING above construct was transformed into E. coli BL21 DE3 strain and grown in shake flasks in LB-medium at 37° C. Expression was induced by addition of isopropyl β-D-1-thiogalactopyranoside to a final concentration of 1 mM and cultures shaken overnight. Cell pellets were centrifuged and stored at −70° C. until further use. Protein was purified by cell thawing in lysis buffer (20 mM TRIS-HCl, pH 8, 300 mM NaCl, 2 mM mercaptoethanol, 20 mM imidazole, Complete Protease Inhibitor (Roche) and DNase (Roche)), followed by metal affinity purification using Ni-NTA resins and elution buffer consisting of 20 mM TRIS-HCl, pH 8, 300 mM NaCl, 2 mM mercaptoethanol, 300 mM imidazole and size exclusion chromatography in running buffer (20 mM TRIS-HCl, pH 8, 100 mM NaCl, 2 mM DTT). The peak fraction was collected and concentrated to 2.5 mg/mL.

[2] = target: T2, human STING WT (R232); assay: Human STING HTRF binding assay (competitive, Cisbio 64BDSTGPEG); conditions: 6His tagged human STING WT R232, competition with STING ligand-d2
T2 construct: purchased Cisbio 64BDSTGPEG
Procedure: Binders to human STING WT (R232) were identified using a competitive HTRF assay format (Cisbio 64BDSTGPEG), which uses d2-labeled STING ligand, a 6His tagged human STING protein, and an anti 6His Cryptate-labeled antibody. Compounds compete with the STING ligand-d2 and thereby prevents FRET from occurring, which can be measured by an EnVision™ reader (PerkinElmer).
Assay method: Compounds were delivered as 10 mM DMSO solution, serially diluted by an Agilent Bravo Workstation and transferred to the 384 well assay plate (Perkin Elmer #6005359) using a Cybiwell dispenser. Typically, 8 concentrations were used with the highest concentration at 10 μM or 1 μM in the final assay volume followed by ^˜1:5 dilution steps. DMSO concentration was set to 1% in the final assay volume. The 384 well assay plate contained 20 test compounds and DMSO in column 23 and 24. A cGAMP standard dilution row was prepared according to the manufacturer and transferred to each assay plate. After transfer of compound solution or dilution buffer for negative (high) and positive (low) controls, 5 μl of the human STING protein (cyclic binding domain (residues 138-379) of the WT R232 human version, fused to a 6 His tag at the Nter part; 1:50 dilution in detection buffer) were dispensed to all wells except of the positive control, which received detection buffer only. Plates were the centrifuged for 20 sec at 1000 rpm. After that, 10 μl of Anti-6His-Cryptate antibody/Sting ligand-d2 mix was added to all wells using a Multidrop combi dispenser, followed by another 20 sec/1000 rpm centrifugation step. After an incubation of the plates for 180 min at room temperature, […] at […] (HTRF ratio) was measured using an Envison Reader (PerkinElmer)
Data evaluation and calculation: For data evaluation and calculation, HTRF ratios were calibrated using the cGAMP standard curve. After that, the measurement of the low control was set as 0% control and the measurement of the high control was set as 100% control. The IC50 values were calculated using the standard 4 parameter logistic regression formula. Calculation: [y=(a−d)/(1+(x/c)^b)+d], a=low value, d=high value; x=conc M; c=IC50 M; b=slope;

| SMILES | DSF ΔTm (K) [1] | IC50 [2] |
| --- | --- | --- |
| Cn1nc(-n2cc3c(-c4nc(-c5ccc(P(C)(C)=O)cc5OC(F)(F)F)n(C)c4C4CC4)cccc3n2)cc1C(F)F [Example 2, 4-{5-cyclopropyl-2-[4-(dimethylphosphoryl)-2-(trifluoromethoxy)phenyl]-1-methyl-1H-imidazol-4-yl}-2-[5-(difluoromethyl)-1-methyl-1H-pyrazol-3-yl]-2H-indazole] | 30 K | 25.4 nM |
| COc1nn(C)cc1-n1cc2c(-c3nc(-c4ccc(C(=O)N(C)C)cc4OC(F)(F)F)n(C)c3C3CC3)cccc2n1 [Example 3, 4-{5-cyclopropyl-4-[2-(3-methoxy-1-methyl-1H-pyrazol-4-yl)-2H-indazol-4-yl]-1-methyl-1H-imidazol-2-yl}-N,N-dimethyl-3-(trifluoromethoxy)benzamide] | 26 K | 122 nM |
| CCOc1nn(C)cc1-n1cc2c(-c3nc(-c4ccc(C(N)=O)cc4OC(F)(F)F)n(C)c3C3CC3)cccc2n1 [Example 4, 4-{5-cyclopropyl-4-[2-(3-ethoxy-1-methyl-1H-pyrazol-4-yl)-2H-indazol-4-yl]-1-methyl-1H-imidazol-2-yl}-3-(trifluoromethoxy)benzamide] | 30 K | 40.9 nM |
| COc1nn(C2CC2)cc1-n1cc2c(-c3nc(-c4ccc(C(N)=O)cc4OCC(F)F)n(C)c3C3CC3)cccc2n1 [Example 6, 4-{5-cyclopropyl-4-[2-(1-cyclopropyl-3-methoxy-1H-pyrazol-4-yl)-2H-indazol-4-yl]-1-methyl-1H-imidazol-2-yl}-3-(2,2-difluoroethoxy)benzamide] | 28 K | 16 nM |
| CC[P@](C)(=O)c1ccc(-c2nc(-c3cccc4nn(-c5cc(C(F)F)n(C)n5)cc34)c(C3CC3)n2C)c(OC(F)(F)F)c1 [Example 7, 4-(5-cyclopropyl-2-{4-[(S)-ethyl(methyl)phosphoryl]-2-(trifluoromethoxy)phenyl}-1-methyl-1H-imidazol-4-yl)-2-[5-(difluoromethyl)-1-methyl-1H-pyrazol-3-yl]-2H-indazole] | 30 K | 19.7 nM |
| Cn1nc(-n2cc3c(-c4nc(-c5ccc(C(N)=O)cc5OC(F)(F)F)n(C)c4C4CC4)cccc3n2)cc1C(F)(F)F [Example 8, 4-(5-cyclopropyl-1-methyl-4-{2-[1-methyl-5-(trifluoromethyl)-1H-pyrazol-3-yl]-2H-indazol-4-yl}-1H-imidazol-2-yl)-3-(trifluoromethoxy)benzamide] | 32 K | 85.3 nM |
| COc1nn(C2CC2)cc1-n1cc2c(-c3nn(-c4ccc(P(C)(C)=O)cc4C)c(C)c3C(C)C)cccc2n1 [Example 9, 2-(1-cyclopropyl-3-methoxy-1H-pyrazol-4-yl)-4-{1-[4-(dimethylphosphoryl)-2-methylphenyl]-5-methyl-4-(propan-2-yl)-1H-pyrazol-3-yl}-2H-indazole] | 22 K | 17.6 nM |
| CC[P@](C)(=O)c1ccc(-c2nc(-c3cccc4nn(-c5cc(C(F)(F)F)n(C)n5)cc34)c(C3CC3)n2C)c(OC(F)(F)F)c1 [Example 10, 4-(5-cyclopropyl-2-{4-[(S)-ethyl(methyl)phosphoryl]-2-(trifluoromethoxy)phenyl}-1-methyl-1H-imidazol-4-yl)-2-[1-methyl-5-(trifluoromethyl)-1H-pyrazol-3-yl]-2H-indazole] | 30 K | 31.9 nM |
| COc1nn(CC(C)(C)O)cc1-n1cc2c(-c3nc(-c4ccc(C(N)=O)cc4OC(F)(F)F)n(C)c3C3CC3)cccc2n1 [Example 11, 4-(5-cyclopropyl-4-{2-[1-(2-hydroxy-2-methylpropyl)-3-methoxy-1H-pyrazol-4-yl]-2H-indazol-4-yl}-1-methyl-1H-imidazol-2-yl)-3-(trifluoromethoxy)benzamide] | 26 K | 42.3 nM |
| COCc1cc(C(N)=O)ccc1-c1nc(-c2cccc3nn(-c4cn(C5CC5)nc4OC)cc23)c(C2CC2)n1C [Example 12, 4-{5-cyclopropyl-4-[2-(1-cyclopropyl-3-methoxy-1H-pyrazol-4-yl)-2H-indazol-4-yl]-1-methyl-1H-imidazol-2-yl}-3-(methoxymethyl)benzamide] | 25 K | 9.6 nM |
| CC[P@@](C)(=O)c1ccc(-c2nc(-c3cccc4nn(-c5cn(C6CC6)nc5OC)cc34)c(C3CC3)n2C)c(OC(F)(F)F)c1 [Example 13, 4-(5-cyclopropyl-2-{4-[(R)-ethyl(methyl)phosphoryl]-2-(trifluoromethoxy)phenyl}-1-methyl-1H-imidazol-4-yl)-2-(1-cyclopropyl-3-methoxy-1H-pyrazol-4-yl)-2H-indazole] | 27 K | 18.9 nM |
| CC[P@](C)(=O)c1ccc(-c2nc(-c3cccc4nn(-c5cn(C6CC6)nc5OC)cc34)c(C3CC3)n2C)c(OC(F)(F)F)c1 [Example 14, 4-(5-cyclopropyl-2-{4-[(S)-ethyl(methyl)phosphoryl]-2-(trifluoromethoxy)phenyl}-1-methyl-1H-imidazol-4-yl)-2-(1-cyclopropyl-3-methoxy-1H-pyrazol-4-yl)-2H-indazole] | 30 K | 6.49 nM |
| COc1nn(C2CC2)cc1-n1cc2c(-c3nc(-c4ccc(C(=O)N(C)C)cc4OC(F)(F)F)n(C)c3C3CC3)cccc2n1 [Example 15, 4-{5-cyclopropyl-4-[2-(1-cyclopropyl-3-methoxy-1H-pyrazol-4-yl)-2H-indazol-4-yl]-1-methyl-1H-imidazol-2-yl}-N,N-dimethyl-3-(trifluoromethoxy)benzamide] | 25 K | 32.9 nM |
| COc1nn(C2CC2)cc1-n1cc2c(-c3nc(-c4ccc(C(N)=O)cc4OC(F)(F)F)n(C)c3C3CC3)cccc2n1 [Example 16, 4-{5-cyclopropyl-4-[2-(1-cyclopropyl-3-methoxy-1H-pyrazol-4-yl)-2H-indazol-4-yl]-1-methyl-1H-imidazol-2-yl}-3-(trifluoromethoxy)benzamide] | 32 K | 13.8 nM |

Reference: patent publication US20250333398A1, “MONOARYL AND HETARYL SUBSTITUTED INDAZOLES AND BENZIMIDAZOLES AS STING ANTAGONISTS AND THE USE THEREOF AS MEDICAMENT” (Boehringer Ingelheim International GmbH, priority 2024, published 2025)
